According to patent US9375419B1 (priority 2014, dated 2016):

What was measured:
[1] = system: human Norovirus replicon (GT1, HG23 cell line); assay: Secondary anti-Norovirus assay, quantitative polymerase chain reaction (replicon); details: for Sl50 - CC50/EC50 / Sl90 - CC50/EC90: quantitative PCR (replicon), HG23 cells
[2] = system: human Norovirus replicon (GT1, HG23 cell line); assay: Primary anti-Norovirus assay, RNA hybridization (replicon); details: for Sl50 - CC50/EC50 / Sl90 - CC50/EC90: RNA hybridization (replicon), HG23 cells
[3] = system: Herpes Simpex Virus 1; format: cell-based
[4] = system: Rift valley fever virus; format: cell-based
[5] = system: Venezuelan equine encephalalitis virus; format: cell-based
[6] = Cytotoxicity by neutral red dye uptake, primary assay; details: human
[7] = Neutral red (toxicity), secondary assay; details: human
[8] = system: Hepatitis C virus; format: cell-based
[9] = system: Hepatitis B virus; format: cell-based
[10] = system: polio virus; format: cell-based
[11] = system: Human cytomegalovirus; format: cell-based
[12] = system: tacaribe virus; format: cell-based
[13] = system: Yellow fever virus; format: cell-based
[14] = system: Herpes Simpex Virus 2; format: cell-based
[15] = system: Adenorovirusirus-5; format: cell-based
[16] = system: Vaccina virus; format: cell-based

For `C[C@@]1(O)[C@H](O)[C@@H](CO)O[C@H]1n1ccc(N)nc1=O` [2′C-methyl cytidine, reference compound], the “Sl50 - CC50/EC50” value [1] was greater than 50, the “Sl90 - CC50/EC90” value [1] was greater than 17 and the “Sl50 - CC50/EC50” value [2] was greater than 48. For the same compound, the “Sl90 - CC50/EC90” value [2] was greater than 16.

In the case of `COc1c(C)cnc(Cn2cnc3c(Cl)cc(N)cc32)c1C` [Compound 1, 4-Chloro-1-((4-methoxy-3,5-dimethylpyridin-2-yl)methyl)-1H-benzo[d]imidazo-6-amine], the antiviral activity [3] is reported as “did not have activity”, the antiviral activity [4] is reported as “did not have activity” and the antiviral activity [5] is reported as “did not have activity”. The EC50 ([1]; Norovirus, GT1, HG23, in Homo sapiens, read-out: EC50 - compound concentration that reduces viral replication by 50%) was 1.4 µM, the EC90 ([1]; Norovirus, GT1, HG23, in Homo sapiens, read-out: EC90 - compound concentration that reduces viral replication by 90%) was 8.5 µM and the “Sl50 - CC50/EC50” value [1] was greater than 36. For the same compound, the “Sl90 - CC50/EC90” value [1] was greater than 6, the “activity against Norovirus, data confirmed in the secondary assay” value ([1]; secondary assay) was “confirmed” and the CC50 at 3 day [6] was greater than 100 µM. The CC50 at 3 day [7] was greater than 50 µM, the antiviral activity [8] was “did not have activity” and the antiviral activity [9] was “did not have activity”. The antiviral activity [10] was “did not have activity”, the antiviral activity [11] was “did not have activity” and the EC50 ([2]; Norovirus, GT1, HG23, in Homo sapiens, 72 h, read-out: EC50 - compound concentration that reduces viral replication by 50%) was 0.617 µM. The EC90 ([2]; Norovirus, GT1, HG23, in Homo sapiens, 72 h, read-out: EC90 - compound concentration that reduces viral replication by 90%) was 7.5 µM, the “Sl50 - CC50/EC50” value [2] was greater than 162 and the “Sl90 - CC50/EC90” value [2] was greater than 13. The “activity against Norovirus in the primary screen” value ([2]; primary screen) was “active”, the antiviral activity [12] was “did not have activity” and the antiviral activity [13] was “did not have activity”. For the same compound, the antiviral activity [14] was “did not have activity”, the antiviral activity [15] was “did not have activity” and the antiviral activity [16] was “did not have activity”.
